Entries after “also recorded” stand apart in the source; their conditions may differ. Read-outs that look alike come from different tables or passages of the source.
Columns and labels:
HEY A8 cells [1] = test: Population of CD133+ cells by flow cytometry (PE-conjugated CD133 antibody); type: cell-based, human; conditions: 15 μM; for population of CD133+ cells after treatment: control 21.8%
Procedure: CD133 has been reported to be a marker of ovarian CSCs. After cells treated with synthetic molecule, the population of CD133^+ cells were measured. HEY A8 cells were treated with taxol (100 nM), compound sff-2-112 (“Example 1”) or sff-2-132 (“Example 4”) at the concentration of 15 μM. Medium containing 0.1% DMSO was used as a negative control.
A suspension of HEY A8 cells at the concentration of 2.5×10^4 cells/mL in DMEM medium were seeded into 60-mm cell culture dishes. Cells were incubated at 37° C. in a humidified atmosphere containing 5% CO2 for 24 h, followed by the addition of 4 mL fresh medium or medium containing Paclitaxel (100 nM), sff-2-112 (15 μM) or compound sff-2-132 (15 μM). Medium containing 0.1% DMSO was used as a negative control. After 3 days, the medium was removed and cells were washed with cold PBS twice, and then stained with PE-conjugated CD133 antibody according to the manufacture's instruction. The fluorescence was analyzed by flow cytometry.

SKOV3 cancer cells = test: Cell viability (CellTiter-Glo) on adherent SKOV3 cancer cells; type: cell-based, human
Procedure: Cell Cultures Human ovarian carcinoma cell lines HEY A8 and SKOV3 were gifts from Professor Alice Wong's group (The University of Hong Kong). Cells were grown in Dulbecco's Modified Eagle (DMEM) medium supplemented with 10% FBS and 1% penicillin/streptomycin at 37° C. in a humidified atmosphere containing […] CO2. Isolation and culture of spheres were performed in serum-free stem-cell-selective condition as described in literature Ip etl. Oncogene 2014, 5, 9133-9149. Briefly, 1-2 weeks after plating, non-adherent spherical clusters of cells could be observed and were separated from single cells by low speed centrifugation. After 8th to 10th passages, the non-adherent spherical clusters of cells appeared as distinct spheres. Using this selection condition, HEY A8 spheres (HEY A8 SP) or SKOV3 spheres (SKOV3 SP) could be enzymatically dissociated and reformed into spheres within 3 days under stem-cell-selective condition. To allow differentiation, dissociated sphere cells were plated on tissue culture plates in medium (MCDB 105:M199=1:1) supplemented with 10% FBS and 1% PS.
HEY A8 or SKOV3 cancer Cells were plated in triplicate in 0.1 mL full medium in 96-well plates for 24 h. After that, the medium was changed to the fresh prepared medium with various concentrations of compounds. Cells were incubated for another 48 h. Then the cell viability was measured by CellTiter-Glo® Luminescent Cell Viability reagent according to the manufacture's instruction. The luminescence at 550 nm was measured using a microplate reader (SpectraMax 340PC 384, Molecular Devices).

HEY A8 CSCs [2] = test: Immunoblotting of apoptosis associated proteins PARP, Caspase 3, Caspase 9; type: cell-based, human; conditions: 48 h; CSCs at 10-fold lower concentration than cancer cells
Procedure: For immunostaining experiment, cells were treated with compound sff-2-112 (“Example 1”) or compound sff-2-132 (“Example 4”) at different concentration for 48 h, then washed twice with PBS buffer and lysed with 2×SDS buffer with 0.1% Benzonase. Protein extracts were quantified by Pierce BCA Protein Assay Kit with a Nanodrop 2000 (Thermo Fisher Scientific) according to the manufacture's instruction. Protein lysates (˜50 μg/lane) were resolved by SDS-PAGE and transferred onto PVDF membranes. Membranes were incubated with membrane blocking solution (Thermo Fisher Scientific) for 1 h. The blots were then probed with the relevant primary antibodies in blocking solution at 4° C. overnight with gentle agitation. Membranes were washed with 0.1% Tween 20/TBS for 5 min three times and were incubated with Horseradish Peroxidase (HRP) conjugated secondary antibodies for 1 h at room temperature. Antigens were detected by SuperSignal West Pico PLUS Chemiluminescent Substrate (Thermo Fisher Scientific). Imaging was performed using a ChemiDoc™ XRS+ System (Bio-Rad).

HEY A8 cells [3] = test: Sphere formation in suspension culture after treatment; type: cell-based, human; conditions: 15 or 30 μM for 48 h, 3 days recovery, 5 days sphere formation
Procedure: Hey A8 cells were treated with compounds DMSO sff-2-112 (“Example 1”) or sff-2-132 (“Example 4”) at the concentration of 15 or 30 μM for 48 h. Then cells were allowed to recover and grow in full medium in cell culture dishes for 3 days. After that, cells at the density of 5×10^4 cells/mL were transferred into low attachment dishes for 5 days to allow sphere formation. The number of spheres in each dish were counted.

HEK293 = test: Toxicity against normal cell line HEK293; type: cell-based
Source text: (§1) Fourteen compounds including aminoxy acid monomers and dipeptides have been identified to show toxicity against HEY A8 CSCs. The half maximal inhibitory concentration (IC50) values of compounds sff-2-112, sff-2-124, sff-2-132 and sff-2-100 towards adherent cancer HEY A8, SKOV3 cells and CSCs were further determined. […] Especially compound sff-2-132, its selectivity to CSCs is up to 60-fold higher than that to cancer cells. Their toxicity against other normal cell lines NIH3T3, HEK293 and MDCK were also tested and the IC50 values were summarized in Table 1.

HEY A8 CSCs [4] = test: Apoptosis, Annexin V / PI flow cytometry, CSCs; type: cell-based, human; conditions: 5 μM, 2 days; DMSO 4.92%
Procedure: A suspension of HEY A8 cells at the concentration of 5×10^4 cells/mL in DMEM medium were seeded into 60-mm cell culture dishes. Cells were incubated at 37° C. in a humidified atmosphere containing 5% CO2 for 24 h followed by the addition of 4 mL fresh medium or medium containing compound sff-2-112 (“Example 1”) or sff-2-132 (“Example 4”) at different concentration. Medium containing 0.1% DMSO was used as negative control. After 2 days, the medium was aspirated and cells were washed with cold PBS twice, and then stained with PI and Annexin V according to the manufacture's instruction (Dead Cell Apoptosis Kit with Annexin V Alexa Fluor™ 488 & Propidium Iodide, Thermo Fisher). Cells were analyzed by flow cytometry (BD FACS CantoII Analyzer).

NIH3T3 = test: Toxicity against normal cell line NIH3T3; type: cell-based
Source text: as §1

SMILES	population of CD133+ cells relative to DMSO treated group (HEY A8 cells [1])	population of CD133+ cells after treatment (HEY A8 cells [1]; 3 days) [%]	IC50 (SKOV3 cancer cells; 48 h incubation) [µM]	activation of PARP1, Caspase 3 and Caspase 9 (HEY A8 CSCs [2])	sphere forming ability / number of spheres relative to controls (HEY A8 cells [3])	IC50 (HEK293) [µM]	Annexin V positive cells, CSCs (HEY A8 CSCs [4]) [%]	IC50 (NIH3T3) [µM]	decrease of CD133+ population (HEY A8 cells [1]; 3 days, from 21.8%)	IC50 (SKOV3 cancer cells; Homo sapiens, SK-OV-3, 48 h incubation) [µM]	IC50 (HEK293; Homo sapiens, HEK293) [µM]	IC50 (NIH3T3; Mus musculus, NIH3T3) [µM]
O=C(NO[C@H](COCc1ccccc1)C(=O)Nc1ccccc1)c1cc(C(F)(F)F)cc(C(F)(F)F)c1 [sff-2-112]	significantly reduced the population of CD133^+ cells	12.6	42.1 ± 5.2	activation of protein PARP1, Caspase 3 and Caspase 9 was also observed in CSCs	significant decrease in the number of spheres; also recorded: significantly reduced sphere forming ability	51 ± 1	21.0	30.5 ± 1.1				
CC(C)(C)OC(=O)[C@@H](COCc1ccccc1)ONC(=O)c1cc(C(F)(F)F)cc(C(F)(F)F)c1 [sff-2-132]	significantly reduced the population of CD133^+ cells	1.9		activation of protein PARP1, Caspase 3 and Caspase 9 was also observed in CSCs	significant decrease in the number of spheres; also recorded: significantly reduced sphere forming ability		30.4		around 10 fold	63.4 ± 8.9	70.3 ± 1.7	58 ± 2.2

From patent US12539284B2, “Aminoxy acid-based anti-cancer stem cell compounds and methods thereof” (Westlake University, priority 2019, dated 2026)
